Columns and labels:
KB cell = test: MTS assay, growth inhibition of KB cells; assay type: cell-based; details: Homo sapiens, at 10 μM concentration, incubated for 72 h, read-out: Inhibition rate (%) (growth inhibition rate of MTS assay)
Outline: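 KB cells were allowed 24 h to attach before a 72 h exposure to compound at 10 μM. Viability was measured by MTS/PMS reduction, with absorbance read at 490 nm after 3 h. Values are reported as percent growth inhibition.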

porcine brain tubulin = test: Tubulin polymerization assay; assay type: biochemical; details: at 10 μM concentration
Experimental: In vitro tubulin polymerization assay was performed by using the Tubulin Polymerization Assay Kit (Cytoskeleton, Inc., Denver, Colo.) in a 96-well format, which used the polymerization of porcine brain tubulin in vitro in the presence of varying concentrations of the test compounds. Fluorescence measurements were obtained at 1-minute intervals over a 31-minute period. Fluorescent measurements were performed using excitation at 365 nm, and emission was measured at 440 nm using a Packard Fusion Alpha Microplate Analyzer. Data were analyzed as relative fluorescent units by GraphPad Prism 5 Demo.

biotinylated tubulin = test: Colchicine competitive-binding assay; details: at 10 μM concentration, 3H-colchicine; for binding rate (%) (colchicine competitive-binding): left column pair of Table 7; for Inhibition rate (%) (colchicine competitive-binding): right column pair of Table 7
Experimental: The colchicine competitive-binding assay was done by using the Colchicine Site competitive Assay Kit (Cytoskeleton, Inc.), streptavidin-coated yttrium SPA beads(GE Healthcare, Inc.), and ^3H-colchicine(PerkinElmer, Inc.). Briefly, the binding mixture includes 1 μL^3H-labeled ligand (specific activity […]), and 1 μg biotinylated tubulin and 88 μg SPA beads in 200 μL assay buffer. The test compound and ^3H-labeled ligand were added before tubulin. After incubation at 37° C. for 2 hours, the SPA beads were allowed to settle down for 24 hours at room temperature, and scintillation counting was done on the TopCount Microplate Scintillation Counter.

| SMILES | inhibition at 10 µM (KB cell) | Inhibition rate (%) of tubulin polymerization (porcine brain tubulin) | binding rate (%) (colchicine competitive-binding) (biotinylated tubulin) | Inhibition rate (%) (colchicine competitive-binding) (biotinylated tubulin) |
| --- | --- | --- | --- | --- |
| COc1ccc(Cc2cnc(NC(=O)CCc3ccc(-c4ccccc4)cc3)s2)c(OC)c1OC [Compound 55, 3-Biphenyl-4-yl-N-[5-(2,3,4-trimethoxy-benzyl)-thiazol-2-yl]-propionamide] | 95.1% | 54.9% | 68.8% |  |
| COc1ccc(Sc2cnc(NC(=O)CCc3ccccc3)s2)cc1 [Compound 69, N-[5-(4-Methoxy-phenylsulfanyl)-thiazol-2-yl]-3-phenyl-propionamide] | 87.6% | 50.5% | 85.2% |  |
| COc1ccc(Sc2cnc(NC(=O)CCc3ccc(C)o3)s2)cc1 [Compound 71, N-[5-(4-Methoxy-phenylsulfanyl)-thiazol-2-yl]-3-(5-methyl-furan-2-yl)-propionamide] | 94.4% | 60.1% | 86.0% |  |
| Cc1ccc(CCC(=O)Nc2ccc(-n3ccnc3)cn2)o1 [Compound 77, N-(5-Imidazol-1-yl-pyridin-2-yl)-3-(5-methyl-furan-2-yl)-propionamide] | 87.3% | 60.8% |  | 99.8% |
| O=C(CCc1ccccc1)Nc1ccc(-n2ccc3ccccc32)cn1 [Compound 79, N-(5-Indol-1-yl-pyridin-2-yl)-3-phenyl-propionamide] | 73.7% | 53.2% |  | 90.0% |
| COc1ccc(Sc2ccc(NC(=O)CCc3ccc(C)o3)nc2)cc1 [Compound 83, N-[5-(4-Methoxy-phenylsulfanyl)-pyridin-2-yl]-3-(5-methyl-furan-2-yl)-propionamide] | 95.2% | 64.7% |  | 91.9% |
| COc1ccc(Sc2ccc(NC(=O)CCc3ccccc3)nc2)cc1 [Compound 84, N-[5-(4-Methoxy-phenylsulfanyl)-pyridin-2-yl]-3-phenyl-propionamide] | 94.7% | 50.3% |  | 88.0% |
| Cc1ccc(CCC(=O)Nc2ccc(SCc3ccccc3)cn2)o1 [Compound 85, N-(5-Benzylsulfanyl-pyridin-2-yl)-3-(5-methyl-furan-2-yl)-propionamide] | 76.8% | 54.0% |  | 92.6% |
| Cc1ccc(CCC(=O)Nc2ncc(-c3ccccc3)cn2)o1 [Compound 92, 3-(5-Methyl-furan-2-yl)-N-(5-phenyl-pyrimidin-2-yl)-propionamide] | 97.1% | 74.0% |  | 94.7% |
| O=C(CCc1ccccc1)Nc1ncc(-c2ccccc2)cn1 [Compound 94, 3-Phenyl-N-(5-phenyl-pyrimidin-2-yl)-propionamide] | 97.4% | 55.2% |  | 82.9% |
| O=C(CCc1ccccc1)Nc1ncc(-c2ccc(F)cc2)cn1 [Compound 99, N-[5-(4-Fluoro-phenyl)-pyrimidin-2-yl]-3-phenyl-propionamide] | 95.8% | 55.8% |  | 78.3% |
| COc1cccc(-c2cnc(NC(=O)CCc3ccc(C)o3)nc2)c1OC [Compound 100, N-[5-(2,3-Dimethoxy-phenyl)-pyrimidin-2-yl]-3-(5-methyl-furan-2-yl)-propionamide] | 97.8% | 84.3% |  | 83.4% |
| COc1cccc(-c2cnc(NC(=O)CCc3ccccc3)nc2)c1OC [Compound 102, N-[5-(2,3-Dimethoxy-phenyl)-pyrimidin-2-yl]-3-phenyl-propionamide] | 94.5% | 58.6% |  | 59.2% |
| Cc1ccc(CCC(=O)Nc2ncc(-c3ccc(F)cc3)cn2)o1 [Compound 105, N-[5-(4-Fluoro-phenyl)-pyrimidin-2-yl]-3-(5-methyl-furan-2-yl)-propionamide] | 96.7% | 72.2% |  | 99.3% |
| Cc1ccc(CCC(=O)Nc2ncc(-c3ccc(N(C)C)cc3)cn2)o1 [Compound 106, N-[5-(4-Dimethylamino-phenyl)-pyrimidin-2-yl]-3-(5-methyl-furan-2-yl)-propionamide] | 84.6% | 69.3% |  | 70.1% |
| Cc1ccc(CCC(=O)Nc2ccc(-c3ccccc3)cn2)o1 [Compound 111, 3-(5-Methyl-furan-2-yl)-N-(5-phenyl-pyridin-2-yl)-propionamide] | 65.1% | 72.7% |  | 96.4% |
| Cc1ccc(CCC(=O)Nc2ccc(-c3ccc(F)cc3)cn2)o1 [Compound 112, N-[5-(4-Fluoro-phenyl)-pyridin-2-yl]-3-(5-methyl-furan-2-yl)-propionamide] | 96.2% | 76.9% |  | 87.8% |
| Cc1ccc(CCC(=O)Nc2ncc(-c3ccccc3)cc2C)o1 [Compound 118, 3-(5-Methyl-furan-2-yl)-N-(3-methyl-5-phenyl-pyridin-2-yl)-propionamide] | 93% | 81.4% |  | 99.7% |
| Cc1ccc(CCC(=O)Nc2ncc(-c3ccc(N(C)C)cc3)cc2C)o1 [Compound 120, N-[5-(4-Dimethylamino-phenyl)-3-methyl-pyridin-2-yl]-3-(5-methyl-furan-2-yl)-propionamide] | 85.9% | 51.8% |  | 97.5% |
| Cc1ccc(CCC(=O)Nc2ccc(Br)cn2)o1 [Compound 123, N-(5-Bromo-pyridin-2-yl)-3-(5-methyl-furan-2-yl)-propionamide] | 95.8% | 85.6% |  | 78.4% |
| Cc1ccc(CCC(=O)Nc2ncc(Br)cc2C)o1 [Compound 124, N-(5-Bromo-3-methyl-pyridin-2-yl)-3-(5-methyl-furan-2-yl)-propionamide] | 93.3% | 84.9% |  | 74.8% |

Source: patent US8883793B2, “Tubulin inhibitors and methods of using the same” (Development Center for Biotechnology, priority 2010, dated 2014)
